The test system of assay [1] is 5XFAD mice. The experiment in a line: Morris water maze in 5XFAD mice. In kind it is in vivo, mouse. An excerpt:
A. Thioflavin-S staining of amyloid plaques in the hippocampus (HP), motor cortex (MC), and frontal cortex (FC) of 5XFAD mouse brain sections. Scale bar, 50 μm. B. Quantitative analysis of amyloid plaques. […] F. The percentage of time spent in the target quadrant in the probe trail.
Female wild-type and 5XFAD mice maintained on standard drinking water or compound #11 were trained in a round, water-filled tub (52 inch diameter) in an environment rich with extra maze cues. An invisible escape platform was located in a fixed spatial location 1 cm below the water surface independent of a subjects start position on a particular trial. In this manner, subjects needed to utilize extra maze cues to determine the platform's location. At the beginning of each trial, the mouse was placed in the water maze with their paws touching the wall from 1 of 4 different starting positions (N, S, E, W). Each subject was given 4 trials/day for 5 consecutive days with a 15-min inter-trial interval. […] Upon reaching the invisible escape platform, subjects were left on it for an additional 5 s to allow for survey of the spatial cues in the environment to guide future navigation to the platform. After each trial, subjects were dried and kept in a dry plastic holding cage filled with paper towels to allow the subjects to dry off The temperature of the water was monitored every hour so that mice were tested in water that was between 22 and 25° C. Following the 5 days of task acquisition, a probe trial was presented during which time the platform was removed and the percentage of time spent in the quadrant which previously contained the escape platform during task acquisition was measured over 60 s. All trials were analysed for latency, swim path length, and swim speed by means of MazeScan (Clever Sys, Inc.).

Assay [2] deals with 5XFAD mice. Kind of assay: Synaptic density, spine density and LTP in 5XFAD mice. In kind it is in vivo, mouse. An excerpt:
A. Representative electron microscopy of the synaptic structures. Arrows indicate the synapses. B. Quantitative analysis of the synaptic density in vehicle—and compound 11-treated 5XFAD mice. Data are shown as mean ±SEM (n=3 mice per group). * p <0.01. C. […] Scale bar, 5 μm. D. Quantitative analysis of the spine density. […] E. Long-term potentiation (LTP) of fEPSPs was induced by 3× TBS (4 pulses at 100 Hz, repeated 3 times with a 200-ms interval). Shown traces are representative fEPSPs recorded at the time point 1 and 2 (vehicle treated), 3 and 4 (compound 11-treated mouse). […] Data are presented as mean±SEM. *p<0.05 vs vehicle-treated mice. F. Synaptic transmission assessed by input/output (I/O) relation between stimuli intensity and fEPSP slope. I/O curves obtained in hippocampal slices prepared from vehicle- and compound 11-treated 5XFAD mice.
Synaptic dysfunction is the early feature of AD and is believed to be the basis of cognitive impairment. 5XFAD mice show decreased synaptic density compared to non-transgenic control mice. […] The density of dendritic spines along individual dendrites of pyramidal neurons was assessed by Golgi stain. […] Long-term potentiation (LTP) is a measure of synaptic plasticity that underlies learning and memory. 5XFAD mice have decreased LTP magnitude at Schaffer collateral-CA1 pathways.
Synaptic density was determined by electron microscopy as described previously (22). After deep anesthesia, mice were perfused transcardially with 2% glutaraldehyde and 3% paraformaldehyde in PBS. […]
Electrophysiological analysis was carried out as previously described (23). […] The field excitatory post-synaptic potentials (fEPSPs) were recorded in CA1 stratum radiatum by a glass microelectrode filled with a-CSF with resistance of 3-4 MEI The stimulation output (Master-8; AMPI, Jerusalem) was controlled by the trigger function of an EPC9 amplifier (HEKA Elektronik, Lambrecht, Germany). fEPSPs were recorded under current-clamp mode. […] The magnitudes of LTP are expressed as the mean percentage of baseline fEPSP initial slope. […]

A further assay addresses Cathepsin-L (Homo sapiens, UniProt P07711). Kind of assay: Cathepsin-L enzymatic assay (specificity). In kind it is biochemical. The procedure:
Purified recombinant enzyme was incubated with various concentrations of inhibitor in appropriate assay buffers in the presence of increasing concentrations of inhibitor. The formation of fluorescent product was monitored in duplicate reactions and the data was fit to appropriate equations to calculate the IC50 values.
To identify small-molecule inhibitors of AEP, a high-throughput screen was designed in conjunction with the Emory Chemical Biology Discovery Center. The screen incorporated mouse kidney lysates to assay a 54,384 compound library. […] Additional structural analysis and grouping allowed the compounds to be sorted into 8 distinct backbone families. […] The specificity of the compounds was also determined using four major cysteine proteases (FIG. 2).
Cathepsin-L—100 nM enzyme was pre-incubated with inhibitor in assay buffer (100 mM Sodium Acetate pH 5.5, 1 mM EDTA) for 10 min at 37° C. The reaction was initiated upon addition of 25 μM substrate (D-Val-Leu-Lys-AMC (Bachem)).

Entries after “also recorded” stand apart in the source; their conditions may differ.

Sequence of Cathepsin-L (P07711 114-333, species assumed): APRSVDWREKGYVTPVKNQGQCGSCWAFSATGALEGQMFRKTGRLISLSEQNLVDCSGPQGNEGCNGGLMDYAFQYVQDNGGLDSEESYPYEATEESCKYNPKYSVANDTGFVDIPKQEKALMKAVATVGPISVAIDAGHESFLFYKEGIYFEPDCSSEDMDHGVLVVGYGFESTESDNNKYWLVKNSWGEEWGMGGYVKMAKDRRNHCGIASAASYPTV

`Nc1ccc(N2CCOCC2)c2nonc12` [Compound 11]: the “Morris water maze, distance to platform” value with 5XFAD mice [1] (5 acquisition days, vs vehicle) is “decreased distance to platform”. In addition, the swim speed entry with 5XFAD mice [1] (mouse, in vivo) was “not altered; also recorded: not affected”. Moreover, the “Morris water maze probe test, time in target quadrant” value in the assay on 5XFAD mice [1] (vs vehicle) was “spend more time in the target quadrant; also recorded: spent more time in the target quadrant”. Besides, the “density of dendritic spines (Golgi stain)” value in the assay on 5XFAD mice [2] (5XFAD mice) is “increased; also recorded: reversed”. In addition, the “density of synapse (electron microscopy)” value with 5XFAD mice [2] (CA1 area, 5XFAD mice) is listed as “notably increased”. Further, the “long-term potentiation (LTP) magnitude” value with 5XFAD mice [2] (Schaffer collateral-CA1, 5XFAD mice) was “significantly reversed the LTP deficits; also recorded: enhanced”.

Consider `Sc1nnc(Nc2ccccc2)s1` [Compound BB1], for which the “selectivity for AEP over Cathepsin-L” value on Cathepsin-L is reported as “about 38 fold”.

The record behind these values is patent US20170029388A1, “Treatment of Neurodegenerative Diseases with Asparagine Endopeptidase (AEP) Inhibitors and Compositions Related Thereto” (INTERCONTINENTAL GREAT BRANDS LLC, priority 2014, published 2017).
